In patent publication US6689596B2, “High level expression of human cyclooxygenase-2” (Merck & Co., Inc., priority 1992, dated 2004):
One block for each molecule: values may come before it.

Columns and labels:
[1] = target: T1, cyclooxygenase-2 (osteosarcoma 143.98.2 microsomes) (Homo sapiens, UniProt P35354); test: Microsomal cyclooxygenase assay, osteosarcoma 143.98.2 microsomes; assay type: biochemical; conditions: 20 μM arachidonic acid
T1 construct: The cell homogenates were then subjected to a differential centrifugation protocol to yield an enriched microsomal preparation; endogenous in cells; host or cells: microsomal fraction of human osteosarcoma 143.98.2 cells
T1 sequence (P35354 18-604): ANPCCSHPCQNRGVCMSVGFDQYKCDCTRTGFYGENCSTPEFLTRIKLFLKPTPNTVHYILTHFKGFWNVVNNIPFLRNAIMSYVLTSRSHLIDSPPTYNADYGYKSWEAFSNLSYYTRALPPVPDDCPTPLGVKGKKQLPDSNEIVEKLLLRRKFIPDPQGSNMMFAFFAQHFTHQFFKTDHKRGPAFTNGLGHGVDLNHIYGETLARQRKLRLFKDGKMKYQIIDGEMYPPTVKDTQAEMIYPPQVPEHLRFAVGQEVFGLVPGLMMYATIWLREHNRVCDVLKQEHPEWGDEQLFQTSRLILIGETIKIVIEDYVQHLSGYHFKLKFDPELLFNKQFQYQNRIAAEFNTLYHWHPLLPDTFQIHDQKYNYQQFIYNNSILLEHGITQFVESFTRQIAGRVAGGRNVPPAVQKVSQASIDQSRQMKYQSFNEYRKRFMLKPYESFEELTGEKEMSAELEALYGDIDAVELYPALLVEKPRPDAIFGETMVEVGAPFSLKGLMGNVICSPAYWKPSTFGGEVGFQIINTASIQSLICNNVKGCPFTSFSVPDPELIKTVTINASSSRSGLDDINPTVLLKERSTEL
Description: Human osteosarcoma cells may be grown and maintained in culture as described above. Approximately 10^5 to 10^7 cells are plated in tissue culture plates such as available from NUNCLON and maintained in culture for 2 to 7 days. Cells may be washed with a suitable buffer such phosphate buffered saline, (PBS), pH 7.2. Cells are then removed from the plate, preferably by scraping into PBS. Samples may then be concentrated, such as by centrifuging at 400× g for 10 minutes at 4° C. Cell pellets or other concentrates are either stored at a suitable reduced temperature such as −80° C., or processed immediately. All further manipulations of the cells are preferably performed at 0-4° C. […] Enriched microsomal preparations are then prepared, such as by differential centrifugation to yield an enriched microsomal preparation. In our preferred procedure, the first step consists of four sequential centrifugations of the cell homogenate at 10,000× g for 10 min at 4° C. After each centrifugation at 10,000×.g, the supernatant is retained and recentrifuged. Following the fourth centrifugation, the supernatant is centrifuged at 100,000× g for 60-90 min at 4° C. to pellet the microsomal fraction. […] The resulting microsomal suspension is recentrifuged such as at 100,000× g for 90 min at 4° C. to recover the microsomes. Following this centrifugation the microsomal pellet is resuspended in a stabilizing buffer, such as 0.1 M Tris-Cl, pH 7.4, containing 10 mM EDTA at a protein concentration of approximately 2-5 mg/ml. Aliquots of osteosarcoma microsomal preparations may be stored at low temperature, such as at −80° C. and thawed prior to use.
(§1) Microsomal preparations from Human osteosarcoma and U937 cells are diluted in buffer, such as 0.1 M Tris-HCl, 10 mM EDTA, pH 7.4, (Buffer A) to a protein concentration of 50 to 500 µg/ml. […] Typically, assays are performed in either duplicate or triplicate. Peroxide-free arachidonic acid (CAYMAN) in Buffer A is then added to a final concentration of 20 μM arachidonic acid, followed by incubation, preferably at room temperature for 10 to 60 minutes. Control samples contained ethanol or other vehicle instead of arachidonic acid. Following incubation, the reaction was terminated by addition of HCl or other mineral acid. Prior to analysis of PGE2 levels, samples were neutralized. Levels of PGE2 in samples may be quantitated as described for the whole cell cyclooxygenase assay.
Cells were washed twice with 100 ml of phosphate buffered saline, pH 7.2, (PBS) and then scraped from the plate with a sterile rubber scraper into PBS. Samples were then centrifuged at 400× g for 10 minutes at 4° C. Cell pellets were either stored at −80° C. until use or processed immediately. All further manipulations of the cells were performed at 0-4° C. […] The cell homogenates were then subjected to a differential centrifugation protocol to yield an enriched microsomal preparation. The first step consisted of four sequential centrifugations of the cell homogenate at 10,000× g for 10 min at 4° C. After each centrifugation at 10,000× g the supernatant was retained and recentrifuged. Following the fourth centrifugation, the supernatant was centrifuged at 100,000× g for 60-90 min at 4° C. to pellet the microsomal fraction. […] The resulting microsomal suspension was recentrifuged at 100,000× g for 90 min at 4° C. to recover the microsomes. […] 500 μl aliquots of osteosarcoma microsomal preparations were stored at −80° C. and thawed on ice immediately prior to use.
All subsequent assay steps, including the dilution of stock solutions of test compounds, were automated using the BIOMEK 100 (BIORAD). 5 μl of test compound or DMSO vehicle was added, with mixing, to 20 μl of buffer A in a 96-well minitube plate (BECKMAN).

[2] = target: T2, cyclooxygenase-1 (U-937 microsomes) (Homo sapiens, UniProt P23219); test: Microsomal cyclooxygenase assay, U-937 microsomes; assay type: biochemical; conditions: 20 μM arachidonic acid
T2 construct: host or cells: microsomal fraction of U-937 cells
T2 sequence (P23219 24-599): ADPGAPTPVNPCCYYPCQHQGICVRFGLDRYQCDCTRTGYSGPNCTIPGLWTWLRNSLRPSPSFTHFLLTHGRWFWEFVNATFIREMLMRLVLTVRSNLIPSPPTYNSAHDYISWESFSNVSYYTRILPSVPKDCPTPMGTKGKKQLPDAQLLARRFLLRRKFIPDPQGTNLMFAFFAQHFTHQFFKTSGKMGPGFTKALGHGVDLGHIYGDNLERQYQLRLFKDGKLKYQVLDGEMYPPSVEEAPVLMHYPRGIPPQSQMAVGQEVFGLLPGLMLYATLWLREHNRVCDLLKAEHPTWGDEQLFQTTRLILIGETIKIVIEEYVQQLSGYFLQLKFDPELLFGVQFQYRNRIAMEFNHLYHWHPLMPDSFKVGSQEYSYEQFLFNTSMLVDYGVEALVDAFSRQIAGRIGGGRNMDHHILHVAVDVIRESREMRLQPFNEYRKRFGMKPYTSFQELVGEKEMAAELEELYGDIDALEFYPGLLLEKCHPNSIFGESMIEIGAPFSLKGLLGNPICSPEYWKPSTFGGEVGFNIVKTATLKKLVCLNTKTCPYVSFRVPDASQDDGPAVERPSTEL
Description: COX-1 cells are grown and maintained in culture as described above, washed in a suitable buffer, such as PBS, and cell pellets or concentrates stored, preferably at −80° C. […] The cell homogenate is then concentrated and resuspended. In our preferred procedure the cell homogenate is centrifuged at 10,000× g for 10 minutes at 4° C. The supernatant fraction is then recentrifuged at 100,000× g for 2 hours at 4° C., and the resulting microsomal pellet resuspended in a suitable buffer, such as 0.1 M Tris-HCl, 1 mM EDTA, pH 7.4 to a protein concentration of approximately 1 to 10 mg/ml. Aliquots of osteosarcoma microsomal preparations may be stored at reduced temperature and thawed prior to use.
as §1
U-937 cells were grown and maintained in culture as described above, washed in PBS, and cell pellets frozen at −80° C. […] The cell homogenate was then centrifuged at 10,000× g for 10 minutes at 4° C. The supernatant fraction was then recentrifuged at 100,000× g for 2 hours at 4° C., and the resulting microsomal pellet resuspended in 0.1 M Tris-HCl, 1 mM EDTA, pH 7.4 to a protein concentration of approximately 4 mg/ml. 500 μl aliquots of osteosarcoma microsomal preparations were stored at −80° C. and thawed on ice immediately prior to use.
All subsequent assay steps, including the dilution of stock solutions of test compounds, were automated using the BIOMEK 100 (BIORAD). 5 μl of test compound or DMSO vehicle was added, with mixing, to 20 μl of buffer A in a 96-well minitube plate (BECKMAN). 200 μl of microsome suspension was then added, followed by mixing and incubation for 5 minutes at room temperature. Assays were performed in either duplicate or triplicate. […] of peroxide-free arachidonic acid (CAYMAN) in buffer A is then added to a final concentration of 20 μM aracidonic acid, with mixing, followed by incubation at room temperature for 40 minutes. Control samples contained ethanol vehicle instead of arachidonic acid. Following the incubation period, the reaction was terminated by the addition of 25 μl of 1N HCl, with mixing. Prior to analysis of PGE2 levels, samples were neutralized by the addition of 25 μl of 1 N NaOH. Levels of PGE2 in samples were quantitated by enzyme immunoassay (CAYMAN) as described for the whole cell cyclooxygenase assay.

[3] = target: T3, cyclooxygenase-1 (U-937 cells) (Homo sapiens, UniProt P23219); test: Whole cell cyclooxygenase assay, PGE2 synthesis by U-937 cells in response to exogenous arachidonic acid; assay type: cell-based
T3 construct: the appropriate number of U-937 cells were removed from spinner cultures and centrifuged; host or cells: U-937 human histiocytic lymphoma cells (intact)
T3 sequence (P23219 24-599): as above
Description: Such cells are hereinafter described as COX-1 cells. Prior to assay, the appropriate number of COX-1 cells (10^5 to 10^7 cells/ml) are removed from cultures and concentrated using a technique such as by centrifugation at 300× g for 10 minutes. The supernatant is decanted and cells are washed in a suitable buffer. […] Following incubation of human osteosarcoma cells or COX-1 cells in a suitable buffer, a test compound and/or vehicle samples (such as DMSO) is added, and the resulting composition gently mixed. Preferably the assay is performed in triplicate. Arachidonic acid is then added in proportions as described above. […] Control samples should contain ethanol or other vehicle instead of arachidonic acid. […] For osteosarcoma cells, reactions may be stopped by the addition HCl or other acid, preferably combined with mixing, or by the rapid removal of media directly from cell monolayers. For U-937 cells, reactions may be advantageously be performed in multiwell dishes or microcentrifuge tubes and stopped by the addition of HCl or another mineral acid. Typically, samples assayed in 24-multidishes are then transferred to microcentrifuge tubes, and all samples frozen on dry ice. Similarly, samples are typically stored at -20° C. or below prior to analysis of PGE2 levels. […] Samples are then preferably mixed, such as by vortexing, and PGE2 levels measured using a PGE2 enzyme immunoassay, such as is commercially available from CAYMAN. We have advantageously conducted the plating, washing and color development steps as an automated sequence using a BIOMEK 1000 (BECKMAN). […] Levels of PGE2 are calculated from the standard curve, and may optionally determined using BECKMAN IMMUNOFIT EIA/RIA analysis software. […] Inhibition of PGE2 synthesis by test compounds is calculated between PGE2 levels in samples incubated in the absence or presence of […]. […] For routine subculturing, cells were diluted in fresh medium and transferred to fresh flasks. […] The supernatant was decanted and cells washed in 50 ml of HBSS prewarmed to 37° C. Cells were again pelleted at 300× g for 10 minutes and resuspended in prewarmed HBSS to a final cell density of approximately 1.5×10^6 cells/ml. 1 ml aliquots of cell suspension were transferred to 1.5 ml microcentrifuge tubes or 24-well multidishes (Nunclon). […] All assays were performed in triplicate. […] Control samples contained ethanol vehicle instead of arachidonic acid. Samples were again gently mixed and incubated for a further 10 minutes at 37° C. […] For U-937 cells, reactions in multiwell dishes or microcentrifuge tubes were stopped by the addition of 100 μl of 1N HCl, with mixing. Samples assayed in 24-multidishes were then transferred to microcentrifuge tubes, and all samples were frozen on dry ice. Samples were stored at -20° C. prior to analysis of PGE2 levels. […] Samples were then mixed by vortexing, and PGE2 levels measured using a PGE2 enzyme immunoassay (CAYMAN) according to the manufacturers instructions. The plating, washing and colour development steps of this procedure were automated using a BIOMEK 1000 (BECKMAN). […] Levels of PGE2 were calculated from the standard curve determined using BECKMAN IMMUNOFIT EIA/RIA analysis software.

osteosarcoma 143 cells = test: PGE2 synthesis by osteosarcoma 143 cells in response to arachidonic acid after treatment with growth factors/cytokines; assay type: cell-based, human; conditions: 10 pg/ml; within a 3-hour period, 1% serum; relative to cells grown in the absence of these factors

Molecule: CC(=O)c1ccc(NS(C)(=O)=O)c(Oc2ccc(F)cc2F)c1 [FK-3311]
143.98.2 % Inhibition ([1]; drug 100 nM): 20%
143.98.2 % Inhibition ([1]; drug 3 uM): 26%
U-937 % Inhibition ([2]; drug 100 nM): 0%
U-937 % Inhibition ([2]; drug 3 uM): 0%

Molecule: IL1-β: human recombinant IL1-β (R and D systems Inc.)
levels of PGE2 synthesis by osteosarcoma 143 cells in response to arachidonic acid (osteosarcoma 143 cells): increased

Molecule: CS(=O)(=O)c1ccc(-c2cc(Br)sc2-c2ccc(F)cc2)cc1 [DuP-697]
inhibition at 0.1 µM ([2]; drug 100 nM): 6%
inhibition at 3 µM ([2]; drug 3 uM): 48%

Molecule: CS(=O)(=O)Nc1cc2c(cc1Oc1ccc(F)cc1F)C(=O)CC2 [Flosulide]
inhibition at 0.1 µM ([2]; drug 100 nM): 0%
inhibition at 3 µM ([2]; drug 3 uM): 0%

Molecule: O=C(O)c1ccccc1Nc1cccc(C(F)(F)F)c1 [Flufenamic]
143.98.2 % Inhibition ([1]; drug 100 nM): 16%
143.98.2 % Inhibition ([1]; drug 3 uM): 36%
U-937 % Inhibition ([2]; drug 100 nM): 5%
U-937 % Inhibition ([2]; drug 3 uM): 0%

Further lines, results first:

143.98.2 % Inhibition ([1]; drug 100 nM): 45%
143.98.2 % Inhibition ([1]; drug 3 uM): 66%
U-937 % Inhibition ([2]; drug 100 nM): 30%
U-937 % Inhibition ([2]; drug 3 uM): 67%
Molecule: Cc1cc(CC(=O)O)n(C)c1C(=O)c1ccc(Cl)cc1 [Zomipirac]

U-937 PGE2 ([3]; sample 0.3 nM): 18.3 ng/10^6 cells
U-937 PGE2 ([3]; sample 1.0 nM): 17.7 ng/10^6 cells
U-937 PGE2 ([3]; sample 3.0 nM): 18.3 ng/10^6 cells
U-937 PGE2 ([3]; sample 10 nM): 20.4 ng/10^6 cells
U-937 PGE2 ([3]; sample 30.0 nM): 17.7 ng/10^6 cells
U-937 PGE2 ([3]; sample 100 nM): 18.9 ng/10^6 cells
inhibition at 0.1 µM ([2]; drug 100 nM): 0%
inhibition at 3 µM ([2]; drug 3 uM): 0%
Molecule: CS(=O)(=O)Nc1ccc([N+](=O)[O-])cc1OC1CCCCC1 [NS-398]

inhibition at 0.1 µM ([2]; drug 100 nM): 0%
inhibition at 3 µM ([2]; drug 3 uM): 4%
Molecule: CSc1ccc(/C=C2/C(C)=C(CC(=O)O)c3cc(F)ccc32)cc1 [Sulindac sulfide]

U-937 % Inhibition ([2]; drug 100 nM): 57%
U-937 % Inhibition ([2]; drug 3 uM): 89%
Molecule: CC(C(=O)O)c1ccc(-c2ccccc2)c(F)c1 (centres unmarked) [Fluribprofen]
